ChEMBL document CHEMBL1145106, “The role of the side chain in determining relative delta- and kappa-affinity in C5'-substituted analogues of naltrindole” (J Med Chem, 2003)

Key:
[1] = molecular target: T1, Delta-type opioid receptor (Homo sapiens, UniProt P41143); assay: Ability to displace [3H]DPDPE from human recombinant Opioid receptor delta 1 in CHO cells; assay type: cell-based
Mu-type opioid receptor [2] = molecular target: T2, Mu-type opioid receptor (Homo sapiens, UniProt P35372); assay: Ability to displace [3H]DAMGO from human recombinant Opioid receptor mu 1 in CHO cells; assay type: cell-based
[3] = molecular target: T3, Kappa-type opioid receptor (Homo sapiens, UniProt P41145); assay type: cell-based, CHO
Description: Ability to displace [3H]U-69593 from human recombinant Opioid receptor kappa 1 in CHO cells

[4] = molecular target: T1, Delta-type opioid receptor; conditions: CHO
Description: Ability to displace DPDPE from human recombinant Opioid receptor delta 1 in CHO cells using [35S]- GTP-gamma S Assay

[5] = molecular target: T3, Kappa-type opioid receptor; conditions: CHO
Description: Ability to displace U-69,593 from human recombinant Opioid receptor kappa 1 in CHO cells using [35S]- GTP-gamma S Assay

Mu-type opioid receptor [6] = molecular target: T2, Mu-type opioid receptor; conditions: CHO
Description: Ability to displace DAMGO from human recombinant Opioid receptor mu 1 in CHO cells using [35S]- GTP-gamma S Assay

T3 sequence (P41145 whole entry): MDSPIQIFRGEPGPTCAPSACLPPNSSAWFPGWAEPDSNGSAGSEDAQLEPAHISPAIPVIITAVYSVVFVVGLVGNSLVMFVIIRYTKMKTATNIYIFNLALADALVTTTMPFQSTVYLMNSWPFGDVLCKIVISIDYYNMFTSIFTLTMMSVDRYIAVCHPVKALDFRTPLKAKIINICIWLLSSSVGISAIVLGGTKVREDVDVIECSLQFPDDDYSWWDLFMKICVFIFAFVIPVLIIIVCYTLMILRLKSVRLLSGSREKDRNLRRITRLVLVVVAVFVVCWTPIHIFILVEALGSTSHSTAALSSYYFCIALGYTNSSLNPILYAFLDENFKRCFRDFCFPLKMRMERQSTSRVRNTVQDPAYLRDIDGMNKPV
T2 sequence (P35372 whole entry): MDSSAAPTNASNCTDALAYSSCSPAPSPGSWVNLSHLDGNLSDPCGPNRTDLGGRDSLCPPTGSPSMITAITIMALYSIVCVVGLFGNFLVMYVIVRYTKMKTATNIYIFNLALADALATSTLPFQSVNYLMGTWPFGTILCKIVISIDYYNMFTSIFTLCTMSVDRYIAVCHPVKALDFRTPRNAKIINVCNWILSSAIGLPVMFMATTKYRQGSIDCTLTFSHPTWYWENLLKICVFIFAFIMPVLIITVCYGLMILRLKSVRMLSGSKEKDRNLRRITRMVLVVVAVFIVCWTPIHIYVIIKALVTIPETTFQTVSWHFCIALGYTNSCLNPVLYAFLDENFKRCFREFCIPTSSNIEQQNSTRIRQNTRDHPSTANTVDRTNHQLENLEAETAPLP
T1 sequence (P41143 whole entry): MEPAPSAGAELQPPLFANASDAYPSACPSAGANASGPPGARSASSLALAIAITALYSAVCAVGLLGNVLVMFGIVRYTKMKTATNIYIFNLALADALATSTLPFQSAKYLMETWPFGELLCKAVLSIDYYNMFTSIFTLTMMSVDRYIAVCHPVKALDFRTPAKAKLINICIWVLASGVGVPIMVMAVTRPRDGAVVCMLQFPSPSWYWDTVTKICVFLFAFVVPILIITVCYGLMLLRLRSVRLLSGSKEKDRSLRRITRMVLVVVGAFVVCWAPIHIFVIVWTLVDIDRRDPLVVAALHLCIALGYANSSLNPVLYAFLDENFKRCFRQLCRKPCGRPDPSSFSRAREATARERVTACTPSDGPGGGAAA

SMILES | Ki [1] [nM] | Ki (Mu-type opioid receptor [2]) [nM] | Ki [3] [nM] | Ke [4] [nM] | Ke [5] [nM] | Ke (Mu-type opioid receptor [6]) [nM]
CCCCCCNC(=O)NCCc1ccc2[nH]c3c(c2c1)C[C@@]1(O)C2Cc4ccc(O)c5c4[C@@]1(CCN2CC1CC1)[C@H]3O5 | 2.25 | 13.6 | 8.13 | 1.04 | 1.71 | 1.79
O=C(NCc1ccccc1)c1ccc2[nH]c3c(c2c1)C[C@@]1(O)C2Cc4ccc(O)c5c4[C@@]1(CCN2CC1CC1)[C@H]3O5 | 11.2 | 43.9 | 10.3 | 2.99 | 0.73 | 4.4
CCCCCCCNC(=N)Cc1ccc2[nH]c3c(c2c1)C[C@@]1(O)C2Cc4ccc(O)c5c4[C@@]1(CCN2CC1CC1)[C@H]3O5 | 7.33 | 56.6 | 5.61 | – | – | –
CCC(=N)NCCc1ccc2[nH]c3c(c2c1)C[C@@]1(O)C2Cc4ccc(O)c5c4[C@@]1(CCN2CC1CC1)[C@H]3O5 | 21.8 | 26.4 | 0.28 | 1.77 | 0.24 | 4.7
CCCCCCC/N=C(\N)Cc1ccc2[nH]c3c(c2c1)C[C@@]1(O)C2Cc4ccc(O)c5c4[C@@]1(CCN2CC1CC1)[C@H]3O5 | – | – | – | 5.83 | 0.37 | 2.04
CCCNC(=N)Cc1ccc2[nH]c3c(c2c1)C[C@@]1(O)C2Cc4ccc(O)c5c4[C@@]1(CCN2CC1CC1)[C@H]3O5 | 5.29 | 13.5 | 1.6 | – | – | –
CCNC(=O)NCCc1ccc2[nH]c3c(c2c1)C[C@@]1(O)C2Cc4ccc(O)c5c4[C@@]1(CCN2CC1CC1)[C@H]3O5 | 2.43 | 37.6 | 12.3 | 0.65 | 2.47 | 1.6
CCCCCCCNC(=O)c1ccc2[nH]c3c(c2c1)C[C@@]1(O)C2Cc4ccc(O)c5c4[C@@]1(CCN2CC1CC1)[C@H]3O5 | 70.2 | 61.9 | 21.9 | 6.95 | 0.29 | 6.86
CCCCCNC(=N)Cc1ccc2[nH]c3c(c2c1)C[C@@]1(O)C2Cc4ccc(O)c5c4[C@@]1(CCN2CC1CC1)[C@H]3O5 | 17 | 25.3 | 1.44 | – | – | –
CCC(=O)NCCc1ccc2[nH]c3c(c2c1)C[C@@]1(O)C2Cc4ccc(O)c5c4[C@@]1(CCN2CC1CC1)[C@H]3O5 | 3.12 | 23 | 1.57 | 0.38 | 0.48 | 4.94
CCC/N=C(\N)Cc1ccc2[nH]c3c(c2c1)C[C@@]1(O)C2Cc4ccc(O)c5c4[C@@]1(CCN2CC1CC1)[C@H]3O5 | – | – | – | 4.41 | 0.05 | 3.19
CC(C)CC(=N)NCCc1ccc2[nH]c3c(c2c1)C[C@@]1(O)C2Cc4ccc(O)c5c4[C@@]1(CCN2CC1CC1)[C@H]3O5 | 20.1 | 47.4 | 1.39 | 5.23 | 0.32 | 14.7
CC(=N)NCCc1ccc2[nH]c3c(c2c1)C[C@@]1(O)C2Cc4ccc(O)c5c4[C@@]1(CCN2CC1CC1)[C@H]3O5 | 21.4 | 22.3 | 0.29 | 1.79 | 0.21 | 3.78
CCCCC/N=C(\N)Cc1ccc2[nH]c3c(c2c1)C[C@@]1(O)C2Cc4ccc(O)c5c4[C@@]1(CCN2CC1CC1)[C@H]3O5 | – | – | – | 3.83 | 0.21 | 5.61
CCCCC(=O)NCCc1ccc2[nH]c3c(c2c1)C[C@@]1(O)C2Cc4ccc(O)c5c4[C@@]1(CCN2CC1CC1)[C@H]3O5 | 7.67 | 31.6 | 0.68 | 0.23 | 0.46 | 3.37
CCCC(=O)NCCc1ccc2[nH]c3c(c2c1)C[C@@]1(O)C2Cc4ccc(O)c5c4[C@@]1(CCN2CC1CC1)[C@H]3O5 | 3.7 | 31 | 0.85 | 0.3 | 0.35 | 3.17
O=C(NCCCCc1ccccc1)c1ccc2[nH]c3c(c2c1)C[C@@]1(O)C2Cc4ccc(O)c5c4[C@@]1(CCN2CC1CC1)[C@H]3O5 | 59.5 | 37 | 6.18 | 5.15 | 0.26 | 2.78
CCCC(=N)NCCc1ccc2[nH]c3c(c2c1)C[C@@]1(O)C2Cc4ccc(O)c5c4[C@@]1(CCN2CC1CC1)[C@H]3O5 | 27.6 | 40.8 | 0.25 | 1.89 | 0.18 | 4.21
CCCCC(=N)NCCc1ccc2[nH]c3c(c2c1)C[C@@]1(O)C2Cc4ccc(O)c5c4[C@@]1(CCN2CC1CC1)[C@H]3O5 | 38.2 | 219 | 0.3 | 3.31 | 0.17 | 5.33
O=C(NCCc1ccccc1)c1ccc2[nH]c3c(c2c1)C[C@@]1(O)C2Cc4ccc(O)c5c4[C@@]1(CCN2CC1CC1)[C@H]3O5 | 3.53 | 23.5 | 2.21 | 1.21 | 0.17 | 2.7
COc1ccc(CNC(=O)c2ccc3[nH]c4c(c3c2)C[C@@]2(O)C3Cc5ccc(O)c6c5[C@@]2(CCN3CC2CC2)[C@H]4O6)cc1 | 7.41 | 4.64 | 2.11 | 6.2 | 0.28 | 0.94
CCCCNC(=O)NCCc1ccc2[nH]c3c(c2c1)C[C@@]1(O)C2Cc4ccc(O)c5c4[C@@]1(CCN2CC1CC1)[C@H]3O5 | 2.6 | 4.8 | 6.33 | 0.53 | 1.52 | 1.63
